Reference: PubChem BioAssay (NCI)
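Exposure lasted 48 hours, with cells grown in 96-well plates and compounds tested at five concentrations. TGI denotes the concentration required for complete inhibition of growth.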

Key:
Assay in all cases: NCI tumour cell line growth inhibition, 48 h
MCF7 breast = system: MCF7 breast
MOLT-4 leukemia = system: MOLT-4 leukemia
SK-MEL-5 melanoma = system: SK-MEL-5 melanoma
MALME-3M melanoma = system: MALME-3M melanoma
MDA-N = system: MDA-N
SR leukemia = system: SR leukemia
OVCAR-5 ovarian = system: OVCAR-5 ovarian
SK-OV-3 ovarian = system: SK-OV-3 ovarian
M14 melanoma = system: M14 melanoma
OVCAR-8 ovarian = system: OVCAR-8 ovarian
MDA-MB-435 = system: MDA-MB-435
RPMI-8226 leukemia = system: RPMI-8226 leukemia
DU-145 prostate = system: DU-145 prostate
SW-620 colon = system: SW-620 colon
SK-MEL-28 melanoma = system: SK-MEL-28 melanoma
SN12C renal = system: SN12C renal
HL-60(TB) leukemia = system: HL-60(TB) leukemia
SF-268 CNS = system: SF-268 CNS
U251 CNS = system: U251 CNS
SNB-19 CNS = system: SNB-19 CNS
PC-3 prostate = system: PC-3 prostate
RXF 393 renal = system: RXF 393 renal
HT29 colon = system: HT29 colon
K-562 leukemia = system: K-562 leukemia
COLO 205 colon = system: COLO 205 colon
HCT-116 colon = system: HCT-116 colon
CCRF-CEM leukemia = system: CCRF-CEM leukemia
EKVX NSCLC = system: EKVX NSCLC
SNB-75 CNS = system: SNB-75 CNS
CAKI-1 renal = system: CAKI-1 renal
786-0 renal = system: 786-0 renal
MDA-MB-231 breast = system: MDA-MB-231 breast
HOP-62 NSCLC = system: HOP-62 NSCLC
LOX IMVI melanoma = system: LOX IMVI melanoma
SF-295 CNS = system: SF-295 CNS
OVCAR-3 ovarian = system: OVCAR-3 ovarian
HS 578T breast = system: HS 578T breast
A498 renal = system: A498 renal
SK-MEL-2 melanoma = system: SK-MEL-2 melanoma
SF-539 CNS = system: SF-539 CNS
IGROV1 ovarian = system: IGROV1 ovarian
NCI-H226 lung = system: NCI-H226 lung
NCI/ADR-RES ovarian = system: NCI/ADR-RES ovarian
KM12 colon = system: KM12 colon

Measured: TGI

NC(=O)Cn1c(=O)oc2cc(C(=O)CN3CCOCC3)ccc21
> 100 µM: MCF7 breast | MOLT-4 leukemia | SK-MEL-5 melanoma | MALME-3M melanoma | MDA-N | SR leukemia | OVCAR-5 ovarian | SK-OV-3 ovarian | M14 melanoma | OVCAR-8 ovarian | MDA-MB-435 | RPMI-8226 leukemia | DU-145 prostate | SW-620 colon | SK-MEL-28 melanoma | SN12C renal | HL-60(TB) leukemia | SF-268 CNS | U251 CNS | SNB-19 CNS | PC-3 prostate | RXF 393 renal | HT29 colon | K-562 leukemia | COLO 205 colon | HCT-116 colon | CCRF-CEM leukemia | EKVX NSCLC | SNB-75 CNS | CAKI-1 renal | 786-0 renal | MDA-MB-231 breast | HOP-62 NSCLC | LOX IMVI melanoma | SF-295 CNS | OVCAR-3 ovarian | HS 578T breast | A498 renal | SK-MEL-2 melanoma | SF-539 CNS | IGROV1 ovarian | NCI-H226 lung | NCI/ADR-RES ovarian | KM12 colon
